Data: US20060286047A1, “Methods for determining the sequence of a peptide motif having affinity for a substrate” (priority 2005, published 2006)

Columns and labels:
[1] = ELISA assay of peptide motif binding to bleached hair; parameters: species or system human; Binding Activity % Relative to Control: concentration or dose not given beside the values; conditions: for Binding Activity % Relative to Control: bleached human hair, biotinylated peptide, streptavidin-HRP/TMB, A450, relative to positive control SEQ ID NO:124; for binding activity to hair compared to the positive control peptide (in words): bleached hair ELISA, summary of Table 7
Protocol: The hair samples used were 6-inch (15.2 cm) medium brown human hairs obtained from International Hair Importers and Products (Bellerose, N.Y.). The hairs were placed in 90% isopropanol for 30 min at room temperature and then washed 5 times for 10 min each with deionized water. The hairs were air-dried overnight at room temperature. To prepare the bleached hair samples, the air-dried medium brown human hairs were placed in 6% H2O2, which was adjusted to pH 10.2 with ammonium hydroxide, for 10 min at room temperature and then washed 5 times for 10 min each with deionized water. The hairs were air-dried overnight at room temperature.
Ten hair-binding peptide motifs from Table 6 were selected for testing of their hair-binding activity. The ten peptides were synthesized by SynPep (Dublin, Calif.). […] The control peptide had the sequence TPPELLHGDPRS, given as SEQ ID NO:124. The peptides were biotinylated by adding a biotinylated lysine residue at the C-terminus of the amino acid binding sequences for detection purposes and an amidated cysteine was added to the C-terminus of the sequence.
Bleached hair samples were prepared and placed into wells of a custom 24-well biopanning apparatus, as described in Example 1. The hair was blocked with blocking buffer (SuperBlock™ from Pierce Biotechnology, Inc., Rockford, Ill.) at room temperature for 1 h, followed by six washes with TBST-0.5%, 2 min each, at room temperature. Various concentrations of biotinylated, binding peptide were added to each well, incubated for 15 min at 37° C., and washed six times with TBST-0.5%, 2 min each, at room temperature. Then, streptavidin-horseradish peroxidase (HRP) conjugate (Pierce Biotechnology, Inc.) was added to each well (1.0 μg per well), and incubated for 1 h at room temperature. After the incubation, the conjugate solution was removed and the wells were washed six times with TBST-0.5%, 2 min each, at room temperature. TMB substrate (200 μL) (Pierce Biotechnology, Inc.) was added to each well and the color was allowed to develop for between 5 to 30 min, typically for 10 min, at room temperature. Then, stop solution (200 μL of 2 M H2SO4) was added to each well and the solutions were transferred to a 96-well plate and the A450 was measured using a microplate spectrophotometer (Molecular Devices, Sunnyvale, Calif.). The resulting absorbance values, were used to calculate the binding activity of each hair-binding peptide motif relative to the positive control sequence.

[2] = control peptide as identified by Huang et al.; cited from earlier work

Substance | Binding Activity % Relative to Control [1] [%] | binding activity to hair compared to the positive control peptide (in words) [1] | affinity for hair (in words) [2]
90 (PLSTY; Hair-binding peptide motif) [compound 90] | 53.0 | – | –
92 (TLGQA; Hair-binding peptide motif) [compound 92] | 86.6 | – | –
95 (YSPIK; Hair-binding peptide motif) [compound 95] | 1.9 | low binding activity | –
97 (FPPVP; Hair-binding peptide motif) [compound 97] | 81.5 | – | –
98 (RPPLD; Hair-binding peptide motif) [compound 98] | 90.3 | comparable to or greater than that of the positive control peptide | –
99 (QPLSV; Hair-binding peptide motif) [compound 99] | 84.6 | – | –
119 (SNTTPSPSP; Hair-binding peptide motif) [compound 119] | 94.5 | comparable to or greater than that of the positive control peptide | –
120 (THPLSNTT; Hair-binding peptide motif) [compound 120] | 88.3 | – | –
121 (SPIKRPPLS; Hair-binding peptide motif) [compound 121] | 4.4 | low binding activity | –
123 (RLLRLLRLLRLL; Hair-binding peptide motif) [compound 123] | 127.1 | comparable to or greater than that of the positive control peptide | –
124 (TPPELLHGDPRS; Control hair-binding peptide) [compound 124] | 100.0 | – | high affinity for hair
